Values quoted from earlier work, collected in US9585955B2 (priority 2005, dated 2017).

Details: 20° C. and 2 atm pressure

## [N-]=[N+]=O [Nitrous oxide]
  volume of water in which one liter of the gas dissolves: 1.5 L
